Measured values: patent US10364256B2 (GlaxoSmithKline Intellectual Property Development Limited, priority 2015, dated 2019)

Legend:
[1] = molecular target: T1, Keap1 Kelch domain (321-609) / TAMRA-labeled 16mer NRF2 peptide (ETGE motif) (Homo sapiens, UniProt Q14145); assay: NRF2-Keap1 FP Assay (Keap1 Kelch fluorescence polarization); assay type: binding; conditions: 20 nM Keap1 (321-609), 8 nM Tamra labeled peptide
T1 construct: the Kelch domain (321-609) of Keap1 is used
Outline: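 Compound dilutions (3-fold) were incubated 1 hr at room temperature with 20 nM Keap1 Kelch (321-609) and 8 nM TAMRA-labeled ETGE 16mer peptide. Buffer was 50 mM Tris pH 8.0, 100 mM NaCl, 5 mM MgCl2, 1 mM DTT, 2 mM CHAPS, 0.005% BSA. Fluorescence polarization (mP) was normalized to controls and fitted with a four-parameter equation to give pIC50.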

[2] = molecular target: T2, full length Keap1 protein / full length NRF2 protein (Homo sapiens, UniProt Q14145); assay: NRF2-Keap1 TR-FRET Assay; assay type: binding; conditions: 25 nM Keap1-FlagHis and 50 nM biotin-NRF2 added
T2 construct: full length NRF2 protein and full length Keap1 protein (Keap1 exists a dimer) are used; His
T2 sequence (Q14145 whole entry): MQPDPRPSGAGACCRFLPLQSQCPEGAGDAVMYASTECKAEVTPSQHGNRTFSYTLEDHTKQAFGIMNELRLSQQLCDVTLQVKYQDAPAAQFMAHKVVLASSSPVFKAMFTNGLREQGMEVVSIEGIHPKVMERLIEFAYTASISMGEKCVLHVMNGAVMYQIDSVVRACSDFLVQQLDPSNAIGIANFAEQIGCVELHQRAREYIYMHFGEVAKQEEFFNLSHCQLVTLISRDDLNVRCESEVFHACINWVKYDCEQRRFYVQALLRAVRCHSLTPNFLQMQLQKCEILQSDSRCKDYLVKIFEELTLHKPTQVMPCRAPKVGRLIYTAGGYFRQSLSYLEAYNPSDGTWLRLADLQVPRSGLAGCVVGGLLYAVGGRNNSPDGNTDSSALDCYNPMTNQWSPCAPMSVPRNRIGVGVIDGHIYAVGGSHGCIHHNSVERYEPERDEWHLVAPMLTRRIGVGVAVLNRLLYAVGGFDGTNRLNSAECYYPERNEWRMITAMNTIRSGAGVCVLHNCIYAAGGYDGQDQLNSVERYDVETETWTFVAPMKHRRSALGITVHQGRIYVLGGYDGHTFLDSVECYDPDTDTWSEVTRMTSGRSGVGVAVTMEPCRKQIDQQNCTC
Outline: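 Full-length Keap1-FlagHis preincubated with compound 2.25 h at 37 °C, then biotin-NRF2 added for 1.25 h at 4 °C, in Tris pH 8.0 with MgCl2, NaCl, BSA, DTT, CHAPS. TR-FRET 665/615 nm ratio normalised to with- and without-protein 1% DMSO controls; pIC50 from four-parameter fit.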

T1 sequence (Q14145 321-609): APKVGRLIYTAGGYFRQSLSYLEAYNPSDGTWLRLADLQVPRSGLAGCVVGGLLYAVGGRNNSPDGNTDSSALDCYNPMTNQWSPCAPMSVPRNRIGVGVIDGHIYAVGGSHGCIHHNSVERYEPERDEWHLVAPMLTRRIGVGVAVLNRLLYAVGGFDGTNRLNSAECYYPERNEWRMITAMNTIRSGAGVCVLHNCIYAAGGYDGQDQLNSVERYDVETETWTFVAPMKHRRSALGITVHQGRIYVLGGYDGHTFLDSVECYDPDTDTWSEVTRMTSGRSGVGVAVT

IC50 [1] [µM]	IC50 [2] [µM]	SMILES
0.01 to 0.1	0.1 to 1	COC(CC1CCCCC1)c1cccc(-c2cccc(-n3ncc(C(=O)O)c3C3CC3c3cn(C)nn3)c2)c1 (stereo not shown) [Example 216, 1-(3′-(2-Cyclohexyl-1-methoxyethyl)-[1,1′-biphenyl]-3-yl)-5-(2-(1-methyl-1H-1,2,3-triazol-4-yl)cyclopropyl)-1H-pyrazole-4-carboxylic Acid]
0.01 to 0.1	0.01 to 0.1	CC(Oc1cccc(-c2cccc(-n3ncc(C(=O)O)c3[C@H]3C[C@@H]3c3cn(C)nn3)c2)c1)C1CCCCCC1 (mixture of isomers) [Example 230, 1-(3′-(1-Cycloheptylethoxy)-[1,1′-biphenyl]-3-yl)-5-((1,2-trans)-2-(1-methyl-1H-1,2,3-triazol-4-yl)cyclopropyl)-1H-pyrazole-4-carboxylic acid]
0.01 to 0.1	0.1 to 1	Cn1cc([C@@H]2C[C@H]2c2c(C(=O)O)cnn2-c2cccc(-c3cccc(OC[C@H]4CC[C@H](C(F)(F)F)CC4)c3)c2)nn1 (racemic) [Example 146, 5-((1,2-trans)-2-(1-Methyl-1H-1,2,3-triazol-4-yl)cyclopropyl)-1-(3′-(((1r,4R)-4-(trifluoromethyl)cyclohexyl)methoxy)-[1,1′-biphenyl]-3-yl)-1H-pyrazole-4-carboxylic acid]
0.1 to 1	1 to 10	Cc1nn(-c2cccc(-c3cccc(OCC4CCCCC4)c3)c2)c(C2CC2c2cn(C)nn2)c1C(=O)O (stereo not shown) [Example 188, 1-(3′-(cyclohexylmethoxy)-[1,1′-biphenyl]-3-yl)-3-methyl-5-(2-(1-methyl-1H-1,2,3-triazol-4-yl)cyclopropyl)-1H-pyrazole-4-carboxylic Acid]
1 to 10	10 to 100	CCc1nc(-c2cccc(-c3cccc(-n4ncc(C(=O)O)c4C4CC4)c3)c2)no1 [Example 209, 5-Cyclopropyl-1-(3′-(5-ethyl-1,2,4-oxadiazol-3-yl)-[1,1′-biphenyl]-3-yl)-1H-pyrazole-4-carboxylic Acid]
0.01 to 0.1	0.1 to 1	Cn1cc(C2CC2c2c(C(=O)O)cnn2-c2cccc(-c3cccc(SCC4CCCCC4)c3)c2)nn1 (stereo not shown) [Example 179, 1-(3′-((Cyclohexylmethyl)thio)-[1,1′-biphenyl]-3-yl)-5-(2-(1-methyl-1H-1,2,3-triazol-4-yl)cyclopropyl)-1H-pyrazole-4-carboxylic acid]
0.01 to 0.1	0.1 to 1	Cn1cc([C@@H]2C[C@H]2c2c(C(=O)O)cnn2-c2cccc(-c3cccc(OCC4CCCCC4)c3F)c2)nn1 (racemic) [Example 152, 1-(3′-(Cyclohexylmethoxy)-2′-fluoro-[1,1′-biphenyl]-3-yl)-5-((1,2-trans)-2-(1-methyl-1H-1,2,3-triazol-4-yl)cyclopropyl)-1H-pyrazole-4-carboxylic Acid]
0.01 to 0.1	0.1 to 1	Cn1cc([C@@H]2C[C@H]2c2c(C(=O)O)cnn2-c2cccc(-c3cccc(OCC4CCC(F)(F)CC4)c3)c2)nn1 (racemic) [Example 145, 1-(3′-((4,4-Difluorocyclohexyl)methoxy)-[1,1′-biphenyl]-3-yl)-5-((1,2-trans)-2-(1-methyl-1H-1,2,3-triazol-4-yl)cyclopropyl)-1H-pyrazole-4-carboxylic acid]
0.1 to 1	1 to 10	Cn1cc(C2CC2c2c(C(=O)O)cnn2-c2cccc(-c3cccc(OCc4ccc(F)cc4)c3)c2)nn1 (stereo not shown) [Example 223, 1-(3′-((4-Fluorobenzyl)oxy)-[1,1′-biphenyl]-3-yl)-5-(2-(1-methyl-1H-1,2,3-triazol-4-yl)cyclopropyl)-1H-pyrazole-4-carboxylic acid]
0.1 to 1	0.1 to 1	CCC1CCC(COc2cccc(-c3cccc(-n4ncc(C(=O)O)c4[C@@H]4C[C@H]4c4cn(C)nn4)c3)c2)CC1 (mixture of isomers) [Example 150, 1-(3′-((4-Ethylcyclohexyl)methoxy)-[1,1′-biphenyl]-3-yl)-5-((1,2-trans)-2-(1-methyl-1H-1,2,3-triazol-4-yl)cyclopropyl)-1H-pyrazole-4-carboxylic acid]
0.01 to 0.1	0.1 to 1	Cn1cc([C@@H]2C[C@H]2c2c(C(=O)O)cnn2-c2cccc(-c3cccc(OCC4CCCSC4)c3)c2)nn1 (mixture of isomers) [Example 144, 5-((1,2-trans)-2-(1-Methyl-1H-1,2,3-triazol-4-yl)cyclopropyl)-1-(3′-((tetrahydro-2H-thiopyran-3-yl)methoxy)-[1,1′-biphenyl]-3-yl)-1H-pyrazole-4-carboxylic Acid]
0.1 to 1	0.1 to 1	Cn1cc([C@H]2C[C@@H]2c2c(C(=O)O)cnn2-c2cccc(-c3cccc(OCC4CCCC(Cl)C4)c3)c2)nn1 (mixture of isomers) [Example 187, 1-(3′-((3-chlorocyclohexyl)methoxy)-[1,1′-biphenyl]-3-yl)-5-((1,2-trans)-2-(1-methyl-1H-1,2,3-triazol-4-yl)cyclopropyl)-1H-pyrazole-4-carboxylic acid]
0.01 to 0.1	0.01 to 0.1	CCC[C@@H]1CCCCN1C(=O)c1cccc(-c2cc(C)cc(-n3ncc(C(=O)O)c3[C@@H]3C[C@H]3c3cn(C)nn3)c2)c1 (single isomer, unassigned) [Example 155]
0.01 to 0.1	0.01 to 0.1	CCC[C@@H]1CCCCN1C(=O)c1cccc(-c2cc(C)cc(-n3ncc(C(=O)O)c3C3CC3c3cn(C)nn3)c2)c1 (stereo partly drawn) [Example 154, 5-(2-(1-Methyl-1H-1,2,3-triazol-4-yl)cyclopropyl)-1-(5-methyl-3′-((R)-2-propylpiperidine-1-carbonyl)-[1,1′-biphenyl]-3-yl)-1H-pyrazole-4-carboxylic Acid]
0.01 to 0.1	0.1 to 1	CC(CC1CCCCC1)Oc1cccc(-c2cccc(-n3ncc(C(=O)O)c3C3CC3c3cn(C)nn3)c2)c1 (stereo not shown) [Example 218, 1-(3′-((1-Cyclohexylpropan-2-yl)oxy)-[1,1′-biphenyl]-3-yl)-5-(2-(1-methyl-1H-1,2,3-triazol-4-yl)cyclopropyl)-1H-pyrazole-4-carboxylic Acid]
0.1 to 1	1 to 10	CC(Oc1cccc(-c2cccc(-n3ncc(C(=O)O)c3[C@H]3C[C@@H]3c3cn(C)nn3)c2)c1)c1ccc(-c2ccccc2)cc1 (mixture of isomers) [Example 240, 1-(3′-(1-([1,1′-Biphenyl]-4-yl)ethoxy)-[1,1′-biphenyl]-3-yl)-5-((1,2- trans)-2-(1-methyl-1H-1,2,3-triazol-4-yl)cyclopropyl)-1H-pyrazole-4-carboxylic acid]
0.01 to 0.1	0.1 to 1	CCC[C@@H]1CCCCN1C(=O)c1cccc(-c2cccc(-n3ncc(C(=O)O)c3C3CC3(F)F)c2)c1 (stereo partly drawn) [Example 67, 5-(2,2-Difluorocyclopropyl)-1-(3′-((R)-2-propylpiperidine-1-carbonyl)-[1,1′-biphenyl]-3-yl)-1H-pyrazole-4-carboxylic Acid]
0.1 to 1	1 to 10	CC(Oc1cccc(-c2cccc(-n3ncc(C(=O)O)c3[C@@H]3C[C@H]3c3cn(C)nn3)c2)c1)C1CCCCC1 (stereo partly drawn) [Example 163, 1-(3′-(1-Cyclohexylethoxy)-[1,1′-biphenyl]-3-yl)-5-((1R,2R)-2-(1-methyl-1H-1,2,3-triazol-4-yl)cyclopropyl)-1H-pyrazole-4-carboxylic acid]
0.01 to 0.1	0.01 to 0.1	CCC[C@@H]1CCCCN1C(=O)c1cccc(-c2cccc(-n3ncc(C(=O)O)c3[C@@H]3C[C@H]3c3cn(C)nn3)c2)c1 [Example 51h, 5-[(1R,2R)-2-(1-methyl-1H-1,2,3-triazol-4-yl)cyclopropyl]-1-(3-{3-[(2R)-2-propylpiperidine-1-carbonyl]phenyl}phenyl)-1H-pyrazole-4-carboxylic Acid]
0.01 to 0.1	0.01 to 0.1	CCCC1CCCCN1C(=O)c1cccc(-c2cccc(-n3ncc(C(=O)O)c3C3CC3c3cccnn3)c2)c1 (stereo not shown) [Example 41, 1-[3′-(2-Propyl-piperidine-1-carbonyl)-biphenyl-3-yl]-5-(2-pyridazin-3-yl-cyclopropyl)-1H-pyrazole-4-carboxylic Acid]
0.1 to 1	0.1 to 1	Cn1cc([C@H]2C[C@@H]2c2c(C(=O)O)cnn2-c2cccc(-c3cccc(OC[C@H]4CC[C@H](Cl)CC4)c3)c2)nn1 (racemic) [Example 185, 1-(3′-((4-Chlorocyclohexyl)methoxy)-[1,1′-biphenyl]-3-yl)-5-((1,2-trans)-2-(1-methyl-1H-1,2,3-triazol-4-yl)cyclopropyl)-1H-pyrazole-4-carboxylic Acid]
0.01 to 0.1	0.01 to 0.1	CCCC1CCCCN1C(=O)c1cccc(-c2cccc(-n3ncc(C(=O)O)c3C3CC3c3cn(C)nn3)c2)c1 (stereo not shown) [Example 42, 5-[2-(1-methyl-1H-1,2,3-triazol-4-yl)cyclopropyl]-1-{3-[3-(2-propylpiperidine-1-carbonyl)phenyl]phenyl}-1H-pyrazole-4-carboxylic Acid]

SMILES	IC50 [1] [µM]	IC50 [2] [µM]
Cn1cc(C2CC2c2c(C(=O)O)cnn2-c2cccc(-c3cccc(OC4CCCN(C(=O)OC(C)(C)C)C4)c3)c2)nn1 (stereo not shown) [Example 232, 1-(3′-((1-(tert-Butoxycarbonyl)piperidin-3-yl)oxy)-[1,1′-biphenyl]-3-yl)-5-(2-(1-methyl-1H-1,2,3-triazol-4-yl)cyclopropyl)-1H-pyrazole-4-carboxylic acid]	0.1 to 1	0.01 to 0.1
